Test system: E. coli Neumann
Assay: Subcutaneous ED100 in infected mice
Type: in vivo
Settings: Escherichia coli, sc, mice infected with E. coli Neumann, mg/kg body weight, ED100 = dose that cures 100 % of the animals, read-out: Subkutane ED100 bei infizierten Mäusen

## Cc1c(C(=O)N2CN(C)CCN(C)C2)[n+]([O-])c2ccccc2[n+]1[O-] [Beispiel 1]
  ED100: 5 to 10 mg/kg
